Structures can show the parent of a compound that is named as a salt.
Assay: collision cross section in nitrogen (drift tube, single-field); higher = larger gas-phase ion size
[1] = ion type: [M+H], ion source: APCI, ion mode: Positive
[2] = ion type: [M+H], ion source: ESI, ion mode: Positive
[3] = ion type: [M+], ion source: APCI, ion mode: Positive
[4] = ion type: [M-H], ion source: ESI, ion mode: Negative
[5] = ion type: [M+Na], ion source: ESI, ion mode: Positive
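Note: chemical standards at 10 µM analysed by drift tube IMS-QTOF MS in about 3.95 torr nitrogen, mean of duplicate injections differing ≤1%, mass error below 10 ppm.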

Row | SMILES | collision cross section in nitrogen [1] | collision cross section in nitrogen [2] | collision cross section in nitrogen [4] | collision cross section in nitrogen [5] | other results
1 | Nc1ccc(Oc2cccc(Oc3ccc(N)cc3)c2)cc1 [1,3-Phenylenedi(4-aminophenyl ether)] | 167.2 Å² | 168.2 Å² | – | – | collision cross section in nitrogen [3]: 177.7 Å²
2 | CCCCCCCCP(=O)(O)O [Octylphosphonic acid] | – | – | 149.9 Å² | – | –
3 | OCCc1ccccn1 [2-(2-Pyridyl)ethanol] | 120.7 Å² | 121.2 Å² | – | – | –
4 | CC1=C(C#N)C(=O)N(C)C(=O)C1 [1,2-Dihydro-6-hydroxy-1,4-dimethyl-2-oxonicotinonitrile] | – | 133.8 Å² | 131.2 Å² | 144.6 Å² | –
5 | CCOC(=O)OC1=C(c2cc(C)ccc2C)C(=O)N[C@]12CC[C@@H](OC)CC2 [Spirotetramat] | 190.2 Å² | 189.3 Å² | – | 202.3 Å² | –
6 | O=c1cccc[nH]1 [2(1H)-Pyridinone] | – | 115.5 Å² | – | – | –
7 | CNCc1ccc(NC(=O)c2c[nH]c3c2C(=O)CCC3)cc1 | – | – | 178.1 Å² | 182.6 Å² | –
8 | CCSC(C)CC1CC(=O)C(C(CC)=NOC/C=C/Cl)=C(O)C1 (stereo unspecified) [Clethodim] | 187.7 Å² | 187.7 Å² | 184.6 Å² | 184.9 Å² | –
9 | CC1(C)CCC(Cc2ccc(Cl)cc2)C1(O)Cn1cncn1 (stereo unspecified) [Metconazole] | 169.3 Å² | 169.1 Å² | – | 176.1 Å² | –
10 | C1CC(COCC2CO2)CCC1COCC1CO1 (stereo unspecified) | – | – | – | 160.1 Å² | –
11 | c1ccc(CCCc2ccncc2)cc1 [4-(3-Phenylpropyl)pyridine] | 145.9 Å² | 146.1 Å² | – | – | –
12 | CCCCCCc1ccc(O)cc1O [4-Hexylresorcinol] | – | – | 150.2 Å² | – | –
13 | CO/N=C(/C(=O)OC)c1ccccc1CO/N=C(\C)c1cccc(C(F)(F)F)c1 [Trifloxystrobin] | 187.4 Å² | 187.2 Å² | – | 193 Å² | –
14 | CCCCc1ccc(N)cc1 [4-Butylaniline] | – | 149.8 Å² | – | – | –
15 | COC(=O)N(C(=O)N1CO[C@@]2(C(=O)OC)Cc3cc(Cl)ccc3C2=N1)c1ccc(OC(F)(F)F)cc1 [Indoxacarb] | 206.6 Å² | 205.7 Å² | – | 220.4 Å² | –
16 | CCCCCCCCCCCCCCCC[N+](C)(C)Cc1ccccc1 [Benzalkonium chloride C16 (BAC C16)] | – | – | – | – | collision cross section in nitrogen (ion source: APCI, ion mode: Positive, ion type: [M]+ (permanent cation)): 208.9 Å²
17 | CCOP(=S)(S)OCC [Ammonium diethyl dithiophosphate] | – | – | 134.4 Å² | – | –
18 | CC(C)(c1ccc(O)cc1)c1ccc(C(C)(C)c2ccc(O)cc2)cc1 [Bisphenol P] | – | – | 180.1 Å² | – | –
19 | C=CC(=O)OCC(COC(=O)C=C)(COC(=O)C=C)COC(=O)C=C [Pentaerythritol tetraacrylate] | – | 172.6 Å² | – | 178.8 Å² | –

Row | SMILES | collision cross section in nitrogen [1] | collision cross section in nitrogen [2] | collision cross section in nitrogen [4] | collision cross section in nitrogen [5] | other results
20 | Oc1c(Cl)ccc(Cl)c1Cl [2,3,6-Trichlorophenol] | – | – | 128.9 Å² | – | –
21 | CCC1COC(Cn2cncn2)(c2ccc(Cl)cc2Cl)O1 (stereo unspecified) [Etaconazole] | 175.4 Å² | 174.1 Å² | – | 189.3 Å² | –
22 | CC1=NNC(=O)C1 [3-Methyl-5-pyrazolone] | – | 119.1 Å² | 117.9 Å² | – | –
23 | CCCCCCCCCCCCN [1-Dodecanamine] | – | 164 Å² | – | – | –
24 | CC(C)c1ccc(S(=O)(=O)O)cc1 [4-Isopropylbenzenesulfonic acid] | – | – | 147.7 Å² | – | –
25 | CCCN(CCC)c1c([N+](=O)[O-])cc(C(F)(F)F)cc1[N+](=O)[O-] [Trifluralin] | – | – | 169.2 Å² | – | –
26 | CCCCCCCCCCCCCC(=O)OC(CO)CO [2-Myristoyl glycerol] | – | – | – | 183.7 Å² | –
27 | CN(C)c1ccc(Cc2ccc(N(C)C)cc2)cc1 [4,4'-Methylenebis(N,N-dimethylaniline)] | 175.3 Å² | 174.8 Å² | – | – | –
28 | C=CC(=O)OCC(CO)(COCC(COC(=O)C=C)(COC(=O)C=C)COC(=O)C=C)COC(=O)C=C [Dipentaerythritol pentaacrylate] | – | – | – | 217.9 Å² | –
29 | Cc1cc(OC(=O)N(C)C)nn1C(=O)N(C)C [Dimetilan] | 152.5 Å² | 153.1 Å² | – | 157.9 Å² | –
30 | CC(COc1ccc(Oc2ccccc2)cc1)Oc1ccccn1 (stereo unspecified) [Pyriproxyfen] | 184.3 Å² | 184.3 Å² | – | 185.4 Å² | –
31 | CC(Oc1ccc(Oc2ncc(C(F)(F)F)cc2Cl)cc1)C(=O)O (stereo unspecified) [Haloxyfop] | – | 180 Å² | 190 Å² | – | –
32 | Cc1cc(-c2cc(C)c(N)c(C)c2)cc(C)c1N [3,3',5,5'-Tetramethylbenzidine] | 175.7 Å² | 176 Å² | – | – | collision cross section in nitrogen [3]: 162.4 Å²
33 | COc1cccc([C@@]2(O)CCCC[C@@H]2CN(C)C)c1 [Tramadol] | 160.6 Å² | 161.1 Å² | – | 171.7 Å² | –
34 | COc1ccccc1C=O [2-Methoxybenzaldehyde] | – | – | – | – | collision cross section in nitrogen [3]: 124.1 Å²
35 | O=C1c2ccccc2C(=O)c2c(O)ccc(O)c21 [1,4-Dihydroxyanthracene-9,10-dione] | – | – | 148.9 Å² | – | –
36 | COP(=S)(OC)Oc1ccc(SC)c(C)c1 [Fenthion] | – | 161.6 Å² | – | 166.3 Å² | –
37 | CC(C)(C)c1ccc(O)c(O)c1 [4-tert-Butylcatechol] | – | – | 139.3 Å² | – | –
38 | CC(=O)NCCCS(=O)(=O)O [1-Propanesulfonic acid, 3-(acetylamino)-, calcium salt (2:1)] | – | – | 134.9 Å² | – | –

More lines, main results first:

Row | collision cross section in nitrogen [1] | collision cross section in nitrogen [2] | collision cross section in nitrogen [4] | SMILES | collision cross section in nitrogen [5] | other results
39 | – | – | 165.3 Å² | CCCCCCCCCCCC(=O)OC(C)C [Isopropyl Laurate] | – | –
40 | – | – | 141.6 Å² | O=S(=O)(O)c1cccc2ccccc12 [Sodium 1-naphthalenesulfonate] | – | –
41 | 125.1 Å² | 125.7 Å² | – | CN(C)C(=N)NC(=N)N [Metformin] | – | –
42 | – | 140.4 Å² | – | CC(CCCCN)C(C)(C)N (stereo unspecified) [Trimethylhexane-1,6-diamine] | – | –
43 | – | – | 239.5 Å² | COc1cc([C@@H]2c3cc4c(cc3[C@@H](O[C@@H]3O[C@@H]5CO[C@@H](C)O[C@H]5[C@H](O)[C@H]3O)[C@H]3COC(=O)[C@H]23)OCO4)cc(OC)c1O [Etoposide] | 249.8 Å² | –
44 | 197.8 Å² | 197.9 Å² | – | CCN(CCC#N)c1ccc(N=Nc2c(Cl)cc([N+](=O)[O-])cc2Cl)cc1 [C.I. Disperse Orange 37] | – | –
45 | – | – | 151.5 Å² | N[C@H](Cc1c[nH]c2ccccc12)C(=O)O [d-Tryptophan] | – | –
46 | 213.1 Å² | 213.3 Å² | – | CC(=O)OCCN(CCOC(C)=O)c1ccc(N=Nc2ccc([N+](=O)[O-])cc2C#N)cc1 [Disperse Red 82] | 201.3 Å² | –
47 | – | – | 201.5 Å² | CC[C@H](C)C(=O)O[C@H]1C[C@H](O)C=C2C=C[C@H](C)[C@H](CC[C@@H](O)C[C@@H](O)CC(=O)O)[C@H]21 [Pravastatin sodium] | 206.7 Å² | –
48 | 241.9 Å² | 242.2 Å² | 244 Å² | CCOc1nc2cccc(C(=O)OC(C)OC(=O)OC3CCCCC3)c2n1Cc1ccc(-c2ccccc2-c2nnn[nH]2)cc1 (stereo unspecified) [Candesartan cilexetil] | 252.1 Å² | –
49 | – | – | 146.8 Å² | CCCCOC(=O)C(C)CC (stereo unspecified) [Butyl 2-methylbutyrate] | – | –
50 | 195.1 Å² | 195.1 Å² | 190.2 Å² | O=C(CCCN1CCC(O)(c2ccc(Cl)cc2)CC1)c1ccc(F)cc1 [Haloperidol] | 200.2 Å² | –
51 | – | – | 183.1 Å² | CCCCCCCCCCCCOC(=O)c1cc(O)c(O)c(O)c1 [Lauryl gallate] | – | –
52 | 187.8 Å² | 187.4 Å² | – | COc1ccc(-n2nc(C(F)F)cc2-c2ccc(S(C)=O)cc2)cc1 (stereo unspecified) [Difpas-pyrazole] | – | –
53 | 163 Å² | 162.9 Å² | – | O=P(c1ccccc1)(c1ccccc1)c1ccccc1 [Triphenylphosphine oxide] | 182.6 Å² | –
54 | – | – | 207.8 Å² | O=C1OC2(c3ccccc31)c1cc(Br)c(O)c(Br)c1Oc1c2cc(Br)c(O)c1Br [Eosin] | – | –
55 | 164.1 Å² | 164.3 Å² | – | CNCCCC12CCC(c3ccccc31)c1ccccc12 [Maprotiline hydrochloride] | – | –
56 | 132.5 Å² | 132.5 Å² | – | S=P(N1CC1)(N1CC1)N1CC1 [Thiotepa] | – | –
57 | 120.8 Å² | – | – | c1ccc2ncccc2c1 [Quinoline] | – | –
58 | 162.8 Å² | 162.4 Å² | – | CSc1nc(NC2CC2)nc(NC(C)(C)C)n1 [Cybutryne] | – | –
59 | – | – | 112.7 Å² | O=S(O)CO [Hydroxymethanesulfinic acid monosodium salt dihydrate] | – | –
60 | – | – | 150.1 Å² | CCCCC(CC)COS(=O)(=O)O (stereo unspecified) [Sodium ethasulfate hydrate] | – | –

— the supplement of paper PMC12317010
